In patent US7291618B2, “Therapeutic compounds” (Pfizer Inc, priority 2004, dated 2007):

Assays:
DPP-IV = target: T1, DPP-IV (Homo sapiens, UniProt P27487); assay: In vitro Assay for DPP-IV Inhibition; type: biochemical; conditions: read-out: IC50 against DPP-IV
T1 construct: purchased MP Biomedicals, Livermore, Calif
Experimental: 150 μL of an enzyme-substrate solution is pipetted into microtiter wells of a polystyrene 96-well plate, and maintained at 4° C. The enzyme-substrate solution comprises 50 μM Gly-Pro-4-methoxy-β-naphthylamide hydrochloride in 50 mM Tris assay buffer pH 7.3 containing 0.1M sodium chloride, 0.1% (v/v) Triton and 50 μU/mL DPP-IV (MP Biomedicals, Livermore, Calif.; DPP-IV 5 mU/mL stock). 5 μL per well of the compound of formula (I) is added, bringing the final concentrations of the formula (I) compound to between 3 μM and 10 nM per well.
Controls. Enzyme is omitted from four (4) wells, as a reagent blank. 5 μL of 3 mM Diprotin A (Bachem Bioscience, Inc.; King of Prussia, Pa.) is added to four wells as a positive quality control, providing a final Diprotin A concentration of 100 μM. To measure total enzyme activity (i.e., a negative control), without the influence of any compounds of formula (I), 5 μL of distilled water is added to four wells.
The entire assay is incubated overnight (between 14 and 18 hours) at 37° C. […]

[1] = Comparative Rat Pharmacokinetics Experiments (plasma concentrations over time after oral gavage); conditions: male, Sprague-Dawley, 5 mg/kg
Experimental: (§1) In this experiment, male Sprague-Dawley rats (200-250 grams) implanted with jugular vein cannulas (JVC) were obtained from Charles River Laboratories. Each compound was administered to two rats or by oral gavage. The oral dose was administered as a solution in 0.5% methycellulose with a dose volume of 10 mL/kg. The amount of each compound administered was 5 mg/kg body weight. Blood samples (0.25 mL) were collected at multiple time points from 0-24 hours and placed into tubes containing lithium heparin (Becton Dickinson, Microtainer®). The blood samples were then centrifuged at 12000 rpm for 10 minutes). Plasma aliquots were taken for determination of compound plasma concentrations (pharmacokinetic analysis). The plasma samples were frozen at −70° C. until analysis.
(§2) The rat plasma samples were analyzed for compound concentrations by LC/MS/MS (Applied Biosystems API 4000 mass spectrometer). In brief, compound standard curves were prepared in control rat plasma with a dynamic range of 1.0-2000 ng/mL. Aliquots (0.02 mL) of both standards and samples Were placed into Marsh™ tubes in a 96-well block. Proteins were precipitated by addition of 0.1 mL acetonitrile containing 0.1 μg/mL of internal standard. The 96-well blocks were vortexed and then centrifuged at 3000 rpm for 5 minutes. The resulting supernatant was removed and placed into a new 96-well block and taken to dryness at 50° C. under a nitrogen stream. Residues were reconstituted in mobile phase (60% 5 mM ammonium acetate and 40% acetonitrile). Aliquots (0.01 mL) were then injected onto the LC/MS/MS for analysis.

[2] = rat, in vivo, po, 5 mg/kg
Experimental: as §1, §2

T1 sequence (P27487 whole entry, species assumed): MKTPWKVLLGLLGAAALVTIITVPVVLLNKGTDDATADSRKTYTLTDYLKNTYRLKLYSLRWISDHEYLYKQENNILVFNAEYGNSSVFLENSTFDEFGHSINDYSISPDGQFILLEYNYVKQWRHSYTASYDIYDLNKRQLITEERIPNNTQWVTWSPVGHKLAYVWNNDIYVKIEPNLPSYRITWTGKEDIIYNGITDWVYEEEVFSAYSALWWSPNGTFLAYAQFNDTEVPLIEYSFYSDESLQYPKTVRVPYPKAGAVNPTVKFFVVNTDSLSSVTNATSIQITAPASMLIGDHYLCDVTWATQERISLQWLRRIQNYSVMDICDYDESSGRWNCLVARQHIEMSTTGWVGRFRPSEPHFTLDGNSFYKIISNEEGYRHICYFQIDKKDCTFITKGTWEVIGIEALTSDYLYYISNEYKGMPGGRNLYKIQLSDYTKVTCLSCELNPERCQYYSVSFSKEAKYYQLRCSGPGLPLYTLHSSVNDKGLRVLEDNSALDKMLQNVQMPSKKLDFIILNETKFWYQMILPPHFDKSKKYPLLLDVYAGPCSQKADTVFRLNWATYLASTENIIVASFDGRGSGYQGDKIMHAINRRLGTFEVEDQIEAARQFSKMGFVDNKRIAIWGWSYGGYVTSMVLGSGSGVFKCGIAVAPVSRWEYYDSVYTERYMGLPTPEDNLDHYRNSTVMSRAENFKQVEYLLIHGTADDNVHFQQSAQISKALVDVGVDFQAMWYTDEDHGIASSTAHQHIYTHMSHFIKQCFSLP

IC50 (DPP-IV) [nM] | concentration at 0.25 h [1] [ng/mL] | concentration at 0.5 h [1] [ng/mL] | concentration at 0.75 h [1] [ng/mL] | concentration at 1 h [1] [ng/mL] | concentration at 2 h [1] [ng/mL] | concentration at 4 h [1] [ng/mL] | concentration at 6 h [1] [ng/mL] | concentration at 8 h [1] [ng/mL] | Compound | plasma concentrations achieved and maintained, compared with the comparator compound [2]
3.5 |  |  |  |  |  |  |  |  | N#Cc1nccnc1N1CCN([C@@H]2CN[C@H](C(=O)N3C[C@@H](F)[C@@H](F)C3)C2)CC1 (relative stereo) [Example 10, ((2S,4S)-4-(4-(3-Cyanopyrazin-2-yl)piperazin-1-yl)pyrrolidin-2-yl)-((3R*,4S*)-3,4-difluoropyrrolidin-1-yl)-methanone] | 
 | 1410 | 1320 | 979 | 768 | 289 | 97.8 | 49.3 | 32.8 | O=C([C@@H]1C[C@H](N2CCN(c3ncccn3)CC2)CN1)N1CCC(F)(F)C1 [CPD 113, (3,3-Difluoropyrrolidin-1-yl)-((2S,4S)-4-(4-(pyrimidin-2-yl)piperazin-1-yl)pyrrolidin-2-yl)-methanone] | significantly higher plasma concentrations
